Earlier results in PMC3073735 (Chemistry & biology, 2011).
Where no end group is shown, it is not given here.

System: ferroportin
Conditions: ref Nemeth, et al., 2006

M21Y: synthetic hepcidin mutant from the literature (DTHFPICIFCCGCCHRSKCGYCCKT-OH; disulfide (positions not given here); ends not checked; UniProt P81172 60-84, looked up, variant M21Y)
activity compared with native hepcidin: comparable activity to native hepcidin
